Columns and labels:
human CB2 receptors = human CB2 receptors (Homo sapiens (Human), UniProt P34972); experiment: cAMP assay, CHO cells expressing human CB2 receptors; format: cell-based; settings: CHO cells expressing human CB2, cAMP; read-out: human CB2 EC50
Procedure, shortened: (§1)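 CHO cells expressing human CB1 or CB2 were preincubated 30 min at 30 °C in Krebs Ringer bicarbonate buffer with 1 mM IBMX, then exposed to compound 30 min at 30 °C. cAMP quantified by time-resolved FRET against a cAMP standard curve; EC50 values derived.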

human CB1 receptors = human CB1 receptors (Homo sapiens (Human), UniProt P21554); experiment: cAMP assay, CHO cells expressing human CB1 receptors; format: cell-based; settings: CHO cells expressing human CB1, cAMP; read-out: human CB1 EC50
human CB1 receptors, sequence (P21554 whole entry): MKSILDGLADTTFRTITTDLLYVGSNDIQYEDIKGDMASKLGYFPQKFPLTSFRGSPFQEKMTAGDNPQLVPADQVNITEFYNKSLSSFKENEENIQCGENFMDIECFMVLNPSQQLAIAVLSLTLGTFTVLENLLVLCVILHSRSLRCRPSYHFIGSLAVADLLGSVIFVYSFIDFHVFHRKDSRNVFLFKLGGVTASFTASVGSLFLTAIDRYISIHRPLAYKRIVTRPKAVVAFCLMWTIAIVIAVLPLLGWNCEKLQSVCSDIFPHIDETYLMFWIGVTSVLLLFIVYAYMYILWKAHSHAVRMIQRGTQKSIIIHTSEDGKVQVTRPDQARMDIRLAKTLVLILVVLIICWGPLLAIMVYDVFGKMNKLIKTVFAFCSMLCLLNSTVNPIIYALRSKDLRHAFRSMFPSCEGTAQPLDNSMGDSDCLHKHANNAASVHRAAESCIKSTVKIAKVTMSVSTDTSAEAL
Procedure, shortened: as §1

human CB2 receptors, sequence (P34972 whole entry): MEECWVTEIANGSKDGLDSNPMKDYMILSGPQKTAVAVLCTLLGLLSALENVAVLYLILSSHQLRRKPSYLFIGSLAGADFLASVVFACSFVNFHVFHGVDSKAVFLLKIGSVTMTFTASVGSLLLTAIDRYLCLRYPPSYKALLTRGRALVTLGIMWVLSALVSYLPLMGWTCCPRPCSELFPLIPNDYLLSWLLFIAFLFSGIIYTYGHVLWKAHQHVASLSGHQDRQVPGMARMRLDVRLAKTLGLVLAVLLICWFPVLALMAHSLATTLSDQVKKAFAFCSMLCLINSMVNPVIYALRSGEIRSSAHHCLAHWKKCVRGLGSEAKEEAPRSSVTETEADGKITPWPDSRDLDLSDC

## O=C(N[C@@H](CC1CC1)c1nccs1)c1ccc(C2CC2)c(OCC2CC2)n1 [Example 99, 5-Cyclopropyl-6-cyclopropylmethoxy-pyridine-2-carboxylic acid ((S)-2-cyclopropyl-1-thiazol-2-yl-ethyl)-amide]
Human CB2 receptors
  EC50: 59.7 nM
Human CB1 receptors
  EC50: > 10000 nM

## CCOC(=O)C(CC)(CC)NC(=O)c1ccc(C(F)(F)F)c(OCC2CCCO2)n1 (stereo not shown) [Example 254, 2-Ethyl-2-{[6-(tetrahydro-furan-2-ylmethoxy)-5-trifluoromethyl-pyridine-2-carbonyl]-amino}-butyric acid ethyl ester]
Human CB2 receptors
  EC50: 2.3 nM
Human CB1 receptors
  EC50: 518 nM

## CNC(=O)[C@@H](NC(=O)c1cccc(-c2cccc(OC)c2)n1)C(C)(C)C [Example 215, (S)-N-(3,3-Dimethyl-1-(methylamino)-1-oxobutan-2-yl)-6-(3-methoxyphenyl) picolinamide]
Human CB2 receptors
  EC50: 125 nM
Human CB1 receptors
  EC50: > 10000 nM

## CC(C)(NC(=O)c1ccc(C2CCOCC2)c(OCC2CC2)n1)c1nccs1 [Example 34, 6-Cyclopropylmethoxy-5-(tetrahydro-pyran-4-yl)-pyridine-2-carboxylic acid (1-methyl-1-thiazol-2-yl-ethyl)-amide]
Human CB2 receptors
  EC50: 53.7 nM
Human CB1 receptors
  EC50: > 10000 nM

## CNC(=O)[C@H](CC(C)C)NC(=O)c1cccc(-c2ccccc2)n1 [Example 205, (S)-N-(4-Methyl-1-(methylamino)-1-oxopentan-2-yl)-6-phenylpicolinamide]
Human CB2 receptors
  EC50: 57.8 nM
Human CB1 receptors
  EC50: > 10000 nM

## Cc1nc([C@H](NC(=O)c2cccc(-c3ccc(F)c(Cl)c3)n2)C2CC2)no1 [Example 261, 6-(3-Chloro-4-fluoro-phenyl)-pyridine-2-carboxylic acid [(+)-cyclopropyl-(5-methyl-[1,2,4]oxadiazol-3-yl)-methyl]-amide]
Human CB2 receptors
  EC50: 10.1 nM
Human CB1 receptors
  EC50: 260 nM

## O=C(NN1CCCCC1)c1cccc(-c2ccc(Cl)cc2)n1 [Example 46, 6-(4-Chloro-phenyl)-pyridine-2-carboxylic acid piperidin-1-ylamide]
Human CB2 receptors
  EC50: 290 nM
Human CB1 receptors
  EC50: > 10000 nM

## O=C(N[C@@H](c1ccccn1)C(F)(F)F)c1ccc(C2CC2)c(Cc2ccc(F)cc2)n1 [Example 332, 5-Cyclopropyl-6-(4-fluoro-benzyl)-pyridine-2-carboxylic acid ((S)-2,2,2-trifluoro-1-pyridin-2-yl-ethyl)-amide]
Human CB2 receptors
  EC50: 4.5 nM
Human CB1 receptors
  EC50: 91 nM

## CNC(=O)[C@@H](NC(=O)c1ccc(C2CC2)c(OCc2ccccn2)n1)C(C)(C)C [Example 201, (S)-5-Cyclopropyl-N-(3,3-dimethyl-1-(methylamino)-1-oxobutan-2-yl)-6-(pyridin-2-ylmethoxy)picolinamide]
Human CB2 receptors
  EC50: 26.7 nM
Human CB1 receptors
  EC50: > 10000 nM

## Cc1nc(C(C)(C)NC(=O)c2ccc(Cl)c(OCC3CC3)n2)no1 [Example 108, 5-Chloro-6-cyclopropylmethoxy-pyridine-2-carboxylic acid [1-methyl-1-(5-methyl-[1,2,4]oxadiazol-3-yl)-ethyl]-amide]
Human CB2 receptors
  EC50: 190 nM
Human CB1 receptors
  EC50: > 10000 nM

## CCC(CC)(NC(=O)c1ccc(C2CC2)c(-c2cccc(Cl)c2)n1)C(=O)NC [Example 71, 6-(3-Chloro-phenyl)-5-cyclopropyl-pyridine-2-carboxylic acid (1-ethyl-1-methylcarbamoyl-propyl)-amide]
Human CB2 receptors
  EC50: 61.2 nM
Human CB1 receptors
  EC50: > 10000 nM

## Cc1ccc(C(=O)NN2CCCCC2)nc1OCC1CC1 [Example 47, 6-Cyclopropylmethoxy-5-methyl-pyridine-2-carboxylic acid piperidin-1-ylamide]
Human CB2 receptors
  EC50: 138 nM
Human CB1 receptors
  EC50: > 10000 nM

## CC(C)(NC(=O)c1cccc(-c2cccc(Cl)c2)n1)c1ncco1 [Example 8, 6-(3-Chloro-phenyl)-pyridine-2-carboxylic acid (1-methyl-1-oxazol-2-yl-ethyl)-amide]
Human CB2 receptors
  EC50: 99.6 nM
Human CB1 receptors
  EC50: > 10000 nM

## CC(C)CC(NC(=O)c1ccc(N2CC(F)(F)C2)c(OCC2CC2)n1)c1ncccn1 (stereo not shown) [Example 339, 6-Cyclopropylmethoxy-5-(3,3-difluoro-azetidin-1-yl)-pyridine-2-carboxylic acid (3-methyl-1-pyrimidin-2-yl-butyl)-amide]
Human CB2 receptors
  EC50: 64.9 nM
Human CB1 receptors
  EC50: > 10000 nM

## Cc1nc([C@H](CC2CC2)NC(=O)c2cccc(-c3ccc(F)c(Cl)c3)n2)no1 [Example 343, 6-(3-Chloro-4-fluoro-phenyl)-pyridine-2-carboxylic acid [(S)-2-cyclopropyl-1-(5-methyl-[1,2,4]oxadiazol-3-yl)-ethyl]-amide]
Human CB2 receptors
  EC50: 3.5 nM
Human CB1 receptors
  EC50: > 10000 nM

## CNC(=O)[C@H](CC(C)(C)C)NC(=O)c1ccc(C2CC2)c(OCC2CCOCC2)n1 [Example 196, (S)-5-Cyclopropyl-N-(4,4-dimethyl-1-(methylamino)-1-oxopentan-2-yl)-6-((tetrahydro-2H-pyran-4-yl)methoxy)picolinamide]
Human CB2 receptors
  EC50: 10.3 nM
Human CB1 receptors
  EC50: > 10000 nM

## O=C(NC1CCCOC1)c1cccc(-c2cccc(Cl)c2)n1 (stereo not shown) [Example 30, 6-(3-Chloro-phenyl)-pyridine-2-carboxylic acid (tetrahydro-pyran-3-yl)-amide]
Human CB2 receptors
  EC50: 658 nM
Human CB1 receptors
  EC50: > 10000 nM

## CCC(CC)(NC(=O)c1ccc(C2CC2)c(OCC2CC2)n1)C(=O)NCCOC [Example 275, 5-Cyclopropyl-6-cyclopropylmethoxy-pyridine-2-carboxylic acid [1-ethyl-1-(2-methoxy-ethylcarbamoyl)-propyl]-amide]
Human CB2 receptors
  EC50: 51.8 nM
Human CB1 receptors
  EC50: > 10000 nM

## Cc1nc(C(C)(C)NC(=O)c2ccc(C3CCOC3)c(-c3cccc(Cl)c3)n2)no1 (stereo not shown) [Example 151, 6-(3-Chloro-phenyl)-5-(tetrahydro-furan-3-yl)-pyridine-2-carboxylic acid [1-methyl-1-(5-methyl-[1,2,4]oxadiazol-3-yl)-ethyl]-amide]
Human CB2 receptors
  EC50: 351 nM
Human CB1 receptors
  EC50: > 10000 nM

## CNC(=O)[C@H](CC(C)(C)C)NC(=O)c1ccc(C(F)(F)F)c(OCC2CCOCC2)n1 [Example 230, 6-(Tetrahydro-pyran-4-ylmethoxy)-5-trifluoromethyl-pyridine-2-carboxylic acid ((S)-3,3-dimethyl-1-methylcarbamoyl-butyl)-amide]
Human CB2 receptors
  EC50: 29.4 nM
Human CB1 receptors
  EC50: 1590 nM

## Cc1nc(C(NC(=O)c2ccc(N3CC(F)(F)C3)c(OCC3CC3)n2)C2CC2)no1 (stereo not shown) [Example 221, 6-Cyclopropylmethoxy-5-(3,3-difluoro-azetidin-1-yl)-pyridine-2-carboxylic acid [cyclopropyl-(5-methyl-[1,2,4]oxadiazol-3-yl)-methyl]-amide]
Human CB2 receptors
  EC50: 12.8 nM
Human CB1 receptors
  EC50: 10000 nM

## CC(C)(NC(=O)c1cccc(-c2cccc(Cl)c2)n1)c1nnco1 [Example 17, 6-(3-Chloro-phenyl)-pyridine-2-carboxylic acid (1-methyl-1-[1,3,4]oxadiazol-2-yl-ethyl)-amide]
Human CB2 receptors
  EC50: 566 nM
Human CB1 receptors
  EC50: > 10000 nM

## CC[C@H](NC(=O)c1ccc(C2CC2)c(OCC2CC2)n1)c1noc(C)n1 [Example 244, 5-Cyclopropyl-6-cyclopropylmethoxy-pyridine-2-carboxylic acid [(+)-1-(5-methyl-[1,2,4]oxadiazol-3-yl)-propyl]-amide]
Human CB2 receptors
  EC50: 14.1 nM
Human CB1 receptors
  EC50: > 10000 nM

## CCC(CC)(NC(=O)c1ccc(C(F)(F)F)c(OCC2CC2)n1)C(=O)N1CC(F)(F)C1 [Example 316, 6-Cyclopropylmethoxy-5-trifluoromethyl-pyridine-2-carboxylic acid [1-(3,3-difluoro-azetidine-1-carbonyl)-1-ethyl-propyl]-amide]
Human CB2 receptors
  EC50: 3.1 nM
Human CB1 receptors
  EC50: > 10000 nM

## CC(C)C[C@H](NC(=O)c1ccc(C2CCOC2)c(OCC2CC2)n1)C(N)=O (stereo partly drawn) [Example 114, 6-Cyclopropylmethoxy-5-(tetrahydro-furan-3-yl)-pyridine-2-carboxylic acid ((S)-1-carbamoyl-3-methyl-butyl)-amide]
Human CB2 receptors
  EC50: 5.7 nM
Human CB1 receptors
  EC50: 703 nM

## CC(C)(NC(=O)c1ccc(Cl)c(-c2cccc(Cl)c2)n1)c1ncco1 [Example 104, 5-Chloro-6-(3-chloro-phenyl)-pyridine-2-carboxylic acid (1-methyl-1-oxazol-2-yl-ethyl)-amide]
Human CB2 receptors
  EC50: 517 nM
Human CB1 receptors
  EC50: > 10000 nM

## Cc1ccc(C(=O)N[C@@H](CC(C)C)c2nccs2)nc1OCC1CC1 [Example 64, 6-Cyclopropylmethoxy-5-methyl-pyridine-2-carboxylic acid ((S)-3-methyl-1-thiazol-2-yl-butyl)-amide]
Human CB2 receptors
  EC50: 18.9 nM
Human CB1 receptors
  EC50: 1460 nM

## CCC(CC)(NC(=O)c1ccc(C2CC2)c(OCC[C@@H](O)C(F)(F)F)n1)C(=O)NC [Example 314, 5-Cyclopropyl-6-((R)-4,4,4-trifluoro-3-hydroxy-butoxy)-pyridine-2-carboxylic acid (1-ethyl-1-methylcarbamoyl-propyl)-amide]
Human CB2 receptors
  EC50: 16.1 nM
Human CB1 receptors
  EC50: 1260 nM

## CC(C)(NC(=O)c1ccc(C2CC2)c(OCC2CC2)n1)c1noc(N)n1 [Example 296, 5-Cyclopropyl-6-cyclopropylmethoxy-pyridine-2-carboxylic acid [1-(5-amino-[1,2,4]oxadiazol-3-yl)-1-methyl-ethyl]-amide]
Human CB2 receptors
  EC50: 60.8 nM
Human CB1 receptors
  EC50: > 10000 nM

## Cc1nc(C(C)(C)NC(=O)c2ccc(C3(O)CCC3)c(OCC3CC3)n2)no1 [Example 160, 6-Cyclopropylmethoxy-5-(1-hydroxy-cyclobutyl)-pyridine-2-carboxylic acid [1-methyl-1-(5-methyl-[1,2,4]oxadiazol-3-yl)-ethyl]-amide]
Human CB2 receptors
  EC50: 124 nM
Human CB1 receptors
  EC50: > 10000 nM

## CN(C)C(=O)[C@H](CC1CC1)NC(=O)c1ccc(N2CC(F)(F)C2)c(OCC2CC2)n1 [Example 256, 6-Cyclopropylmethoxy-5-(3,3-difluoro-azetidin-1-yl)-pyridine-2-carboxylic acid ((S)-2-cyclopropyl-1-dimethylcarbamoyl-ethyl)-amide]
Human CB2 receptors
  EC50: 9.3 nM
Human CB1 receptors
  EC50: > 10000 nM

## CCC(CC)(NC(=O)c1ccc(Cl)c(OCC2CC2)n1)C(=O)NC [Example 109, 5-Chloro-6-cyclopropylmethoxy-pyridine-2-carboxylic acid (1-ethyl-1-methylcarbamoyl-propyl)-amide]
Human CB2 receptors
  EC50: 178 nM
Human CB1 receptors
  EC50: > 10000 nM

From patent US9290451B2 (Hoffmann-La Roche Inc., priority 2011, dated 2016)
